Test results published in patent US20080318905A1, “Prodrugs and methods of making and using the same” (priority 2006, published 2008).
pIC50, pKi: −log10 of the molar value.

Columns and labels:
human mu receptor = human mu receptor (Homo sapiens, UniProt P35372); test: Human mu receptor binding (IC50, Ki)
[1] = molecular target: alkaline phosphatase (EC 3.1.3.1) (Bos taurus, UniProt P19111); test: Enzymatic hydrolysis by alkaline phosphatase at pH 8, 37° C., HPLC
Protocol: Alkaline Phosphatase (400 units) was added to 10 mL of Alkaline Phosphatase Stabilizing Buffer (APSB; Sigma-Aldrich Catalog #A4955) maintained at 37° C. Solution pH was verified by dropping 25 μL of solution onto calibrated Color-pHast Indicator Strips (pH 2-9, Darmstadt, Germany) and checking the color against the calibration scale. […] At each sampling time point, a 200-μL aliquot was drawn into labeled micro centrifuge tubes, each containing 50 μL of Alkaline Phosphatase Stop Solution (APSS; Sigma-Aldrich Catalog #A5852). Acetonitrile (400 μL) was added to each micro centrifuge tube, vortexed briefly, and centrifuged at 12,000 rpm for 5 min. An aliquot (200 μL) of resulting supernatant was removed from each tube, being careful not to disturb the enzyme pellet at the bottom and transferred to HPLC vials containing low volume inserts.

[2] = Chemical hydrolysis / aqueous stability in PBS at pH 1.2, 6 and 8, 37° C., HPLC; settings: 1 mg/mL
Protocol: (§1) PBS solutions at various pHs (1.2, 6 and 8) were prepared by adjusting 60-mL volumes of PBS maintained at 37° C. with a dropwise addition of concentrated phosphoric acid and/or 0.01 N NaOH, and monitoring with a pH meter calibrated between pH 4 and 7. […] A 50 μL sample was taken for the t=0 time point. The remaining solution was then divided into five aliquots (175 μL each) in microcentrifuge vials labeled according to sampling time-points. Air-tight sealed vials were then incubated at 37° C. in a temperature-controlled water bath. At each time-point, the appropriate vial was removed from the water bath, and a 50 μL sample drawn for HPLC analysis.

[3] = Solubility in PBS at pH 8; settings: for Solubility in PBS at pH 8: PBS pH 8, 37° C., levorphanol free base by sonication; for solubility: PBS, 37 °C, pH 8, aqueous buffer, thermodynamic from solid
Protocol: as §1

Sequence of alkaline phosphatase (EC 3.1.3.1) (P19111 20-506 limits assumed): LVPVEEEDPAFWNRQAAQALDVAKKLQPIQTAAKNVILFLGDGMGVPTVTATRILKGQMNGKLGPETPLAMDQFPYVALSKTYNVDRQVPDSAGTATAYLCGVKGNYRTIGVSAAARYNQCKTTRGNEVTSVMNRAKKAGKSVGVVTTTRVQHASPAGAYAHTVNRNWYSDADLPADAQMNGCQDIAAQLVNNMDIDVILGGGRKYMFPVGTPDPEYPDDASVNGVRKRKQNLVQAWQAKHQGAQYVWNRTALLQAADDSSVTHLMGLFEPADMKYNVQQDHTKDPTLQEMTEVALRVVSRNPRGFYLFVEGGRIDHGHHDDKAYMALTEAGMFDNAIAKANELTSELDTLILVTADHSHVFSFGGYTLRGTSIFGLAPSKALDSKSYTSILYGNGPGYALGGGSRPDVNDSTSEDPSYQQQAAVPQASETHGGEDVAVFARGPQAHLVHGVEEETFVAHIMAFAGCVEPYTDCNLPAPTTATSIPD
Sequence of human mu receptor (P35372 whole entry): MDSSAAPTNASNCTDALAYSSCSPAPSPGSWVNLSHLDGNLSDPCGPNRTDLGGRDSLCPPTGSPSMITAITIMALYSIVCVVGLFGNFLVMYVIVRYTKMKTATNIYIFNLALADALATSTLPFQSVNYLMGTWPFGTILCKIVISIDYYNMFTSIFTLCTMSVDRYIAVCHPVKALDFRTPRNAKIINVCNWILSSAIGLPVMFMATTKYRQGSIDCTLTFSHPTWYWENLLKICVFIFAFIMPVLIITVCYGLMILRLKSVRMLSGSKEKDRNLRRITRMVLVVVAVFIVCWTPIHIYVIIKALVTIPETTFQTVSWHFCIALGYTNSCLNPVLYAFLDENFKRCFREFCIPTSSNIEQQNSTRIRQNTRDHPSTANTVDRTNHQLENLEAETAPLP

SMILES: C[N+]1(COP(=O)(O)O)CCC23CCCCC2C1Cc1ccc(O)cc13 (stereo not drawn) [N-phosphonooxymethyl levorphanol, N-Phosphonooxymethyl Levorphanol]
- pIC50 (human mu receptor): 7.85
- pKi (human mu receptor; human mu receptor, same assay as IC50, read-out: inhibition constant, Ki): 8.24
- N-phosphonooxymethyl levorphanol remaining ([1]; alkaline phosphatase, after 30 minutes): no measurable amounts
- share of total peak area that is N-phosphonooxymethyl levorphanol ([1]; alkaline phosphatase, time zero): 1.4%
- time to hydrolyze to levorphanol in the presence of alkaline phosphatase ([1]; pH 8, 40 units AP per mg): ≤ 30 min
- Percentage of N-phosphonooxymethyl levorphanol remaining ([2]; pH 1.2 PBS, 0 hours): 100.0
- Percentage of N-phosphonooxymethyl levorphanol remaining ([2]; pH 1.2 PBS, 0.5 hours): 111.5
- Percentage of N-phosphonooxymethyl levorphanol remaining ([2]; pH 1.2 PBS, 1 hour): 104.4
- Percentage of N-phosphonooxymethyl levorphanol remaining ([2]; pH 1.2 PBS, 3 hours): 110.9
- Percentage of N-phosphonooxymethyl levorphanol remaining ([2]; pH 1.2 PBS, 5 hours): 111.1
- Percentage of N-phosphonooxymethyl levorphanol remaining ([2]; pH 1.2 PBS, 23 hours): 110.9
- Percentage of N-phosphonooxymethyl levorphanol remaining ([2]; pH 6 PBS, 0 hours): 100.0
- Percentage of N-phosphonooxymethyl levorphanol remaining ([2]; pH 6 PBS, 0.5 hours): 101.4
- Percentage of N-phosphonooxymethyl levorphanol remaining ([2]; pH 6 PBS, 1 hour): 102.3
- Percentage of N-phosphonooxymethyl levorphanol remaining ([2]; pH 6 PBS, 3 hours): 104.3
- Percentage of N-phosphonooxymethyl levorphanol remaining ([2]; pH 6 PBS, 5 hours): 104.3
- Percentage of N-phosphonooxymethyl levorphanol remaining ([2]; pH 6 PBS, 22 hours): 108.0
- Percentage of N-phosphonooxymethyl levorphanol remaining ([2]; pH 8 PBS, 0 hours): 100.0
- Percentage of N-phosphonooxymethyl levorphanol remaining ([2]; pH 8 PBS, 0.5 hours): 100.6
- Percentage of N-phosphonooxymethyl levorphanol remaining ([2]; pH 8 PBS, 1 hour): 100.3
- Percentage of N-phosphonooxymethyl levorphanol remaining ([2]; pH 8 PBS, 3.5 hours): 99.8
- Percentage of N-phosphonooxymethyl levorphanol remaining ([2]; pH 8 PBS, 6 hours): 100.5
- Percentage of N-phosphonooxymethyl levorphanol remaining ([2]; pH 8 PBS, 24 hours): 103.7
- Solubility in PBS at pH 8 [3]: approximately 137 mg/mL
- solubility [3]: ~137 mg/mL

SMILES: CN1CC[C@]23CCCC[C@H]2[C@H]1Cc1ccc(O)cc13 [levorphanol, Levorphanol, reference compound]
- Solubility in PBS at pH 8 [3]: less than 1 mg/mL
- solubility [3]: < 1 mg/mL
